Values quoted from earlier work, collected in patent EP4729597A1, “LOW-ALCOHOL BEER-LIKE BEVERAGE AND METHOD FOR PRODUCING LOW-ALCOHOL BEER-LIKE BEVERAGE” (Asahi Group Holdings, Ltd., priority 2023, dated 2024).

Details: not given

Row | LogP | SMILES
1 | 2.3 | CC(=O)OCCC(C)C [Isoamyl acetate]

Same assay, conditions: Table 1, octanol/water partition coefficient

Row | LogP | SMILES
2 | 3.9 | CC(C)=CCCC(C)CCO (centres unmarked) [Citronellol]
3 | 3.8 | CCCCCCCC(=O)OCC [Ethyl octanoate]
4 | 3.6 | CC(C)=CCC/C(C)=C/CO [Geraniol]
5 | 4.3 | C=CC(=C)CCC=C(C)C [Myrcene]
6 | 4.0 | CC(=O)/C=C/C1=C(C)CCCC1(C)C [β-ionone]

Same assay, conditions: Table 3

Row | LogP | SMILES
7 | 3.9 | CC(C)=CCCC(C)CCO (centres unmarked) [Citronellol]
8 | 3.8 | CCCCCCCC(=O)OCC [Ethyl octanoate]
9 | 3.6 | CC(C)=CCC/C(C)=C/CO [Geraniol]
10 | 2.3 | CC(=O)OCCC(C)C [Isoamyl acetate]
11 | 4.3 | C=CC(=C)CCC=C(C)C [Myrcene]
